Values quoted from earlier work as cited in publication PMC3199145 (Future medicinal chemistry, 2011).
One block for each compound: values may come before it.

Tests used:
Trypanosoma cruzi [1] = system: Trypanosoma cruzi
[2] = system: Trypanosoma brucei cathepsin B-like protease (TbCatB); conditions: read-out: IC50 TbCatB
Trypanosoma cruzi [3] = conditions: drug concentration that completely clears parasite from T. cruzi infected macrophage cells; P Doyle & J Engel. Unpublished Data

SMILES: CC[C@@H]([C@H](C)O)n1ncn(-c2ccc(N3CCN(c4ccc(OC[C@@H]5CO[C@@](Cn6cncn6)(c6ccc(F)cc6F)C5)cc4)CC3)cc2)c1=O [posaconazole]
- Cure of mice with acute and chronic Chagas disease (Trypanosoma cruzi [1]; mice): able to cure mice

SMILES: C[C@@H](c1nc(-c2ccc(C#N)cc2)cs1)[C@](O)(Cn1cncn1)c1ccc(F)cc1F [Ravuconazole]
- Efficacy in animal models (Trypanosoma cruzi [1]; compared with posoconazole): more limited than posoconazole

- IC50 [2]: 4 µM
SMILES: CN1CCN(C(=O)N[C@@H](Cc2ccccc2)C(=O)N[C@H](/C=C/S(=O)(=O)c2ccccc2)CCc2ccccc2)CC1 [Compound 1, K11777]
- MTC Trypanosoma cruzi (minimal trypanocidal concentration) (Trypanosoma cruzi [3]): 8 µM
- Efficacy in vivo against T. cruzi parasites (Trypanosoma cruzi [1]): effective
